Our source for the solubility values is ChEMBL document CHEMBL4831498, “Discovery of a potent MLL1 and WDR5 protein-protein interaction inhibitor with in vivo antitumor activity” (Eur J Med Chem, 2021).

In brackets after ≈: the same amount, converted by molar mass.

The data set is described as follows: Solubility of the compound at pH 7.4 by potentiometric titration method. The following applies: buffer. It counts as physicochemical.
By solubility is commonly meant the dissolved amount per volume that the medium holds. Low values mean little dissolved substance, high ones much dissolved substance. Compound `COC(=O)c1ccc(-c2ccc(N3CCN(C)CC3)c(NC(=O)c3cc(N)c(F)c(C)c3Cl)c2)cc1` had a solubility of 3.7 µM (≈ 1.89 µg/mL).
For the compound `Cc1c(F)c(N)cc(C(=O)Nc2cc(-c3ccc(NC(=O)CCCN)cc3)ccc2N2CCN(C)CC2)c1Cl`, the concentration in solution (solubility) came to 199 µM (≈ 110 µg/mL).
With `Cc1c(F)c(N)cc(C(=O)Nc2cc(-c3ccc(NC(=O)C4CCOCC4)cc3)ccc2N2CCN(C)CC2)c1Cl` the figure was 126 µM (≈ 73.3 µg/mL).
The compound `Cc1c(F)c(N)cc(C(=O)Nc2cc(-c3ccc(C(=O)N4CCOCC4)cc3)ccc2N2CCN(C)CC2)c1Cl` came in with a solubility of 48.2 µM (≈ 27.3 µg/mL).
The compound `Cc1c(F)c(N)cc(C(=O)Nc2cc(-c3ccc(NC(=O)C4CCN(C)CC4)cc3)ccc2N2CCN(C)CC2)c1Cl` had a solubility of 3.9 µM (≈ 2.31 µg/mL).
With `Cc1c(F)c(N)cc(C(=O)Nc2cc(-n3cc(C(=O)N4CCOCC4)nn3)ccc2N2CCN(C)CC2)c1Cl` the figure was 361 µM (≈ 201 µg/mL); with `Cc1c(F)c(N)cc(C(=O)Nc2cc(-n3cc(C(=O)NCCCN4CCOCC4)nn3)ccc2N2CCN(C)CC2)c1Cl`, 246 µM (≈ 151 µg/mL); with `Cc1c(F)c(N)cc(C(=O)Nc2cc(-n3cc(C(=O)NC4CCOCC4)nn3)ccc2N2CCN(C)CC2)c1Cl`, 95.6 µM (≈ 54.6 µg/mL).
The compound `Cc1c(F)c(N)cc(C(=O)Nc2cc(-n3cc(C(=O)O)nn3)ccc2N2CCN(C)CC2)c1Cl` had a solubility of 349 µM (≈ 170 µg/mL).
`COC(=O)c1cn(-c2ccc(N3CCN(C)CC3)c(NC(=O)c3cc(N)c(F)c(C)c3Cl)c2)nn1` had a solubility of 41.5 µM (≈ 20.8 µg/mL).
As for `Cc1c(F)c(N)cc(C(=O)Nc2cc(-n3cc(C(=O)NC4CCN(C)CC4)nn3)ccc2N2CCN(C)CC2)c1Cl`, the solubility amounted to 343 µM (≈ 201 µg/mL).
In the case of `Cc1c(F)c(N)cc(C(=O)Nc2cc(-c3ccc(C(=O)O)cc3)ccc2N2CCN(C)CC2)c1Cl` it was 40.5 µM (≈ 20.1 µg/mL).
